The series in a line: Compatibility of surfactants with copper sulfate solutions for coating fabric. In kind it is physicochemical.

Experimental findings from patent US20240016245A1, “ANTIMICROBIAL FACEMASK” (BMG (British Medical Group) Limited, priority 2020, published 2024) are described below.

For `CCCCCCCCCCCC[N+](C)(C)[O-]` [dimethyl dodecylamine N-oxide], the “precipitation from copper sulfate solutions / solution suitable for coating” value is reported as “causing precipitation”.

In the case of `CCCCCCCCCCCC[N+](C)(C)CC(=O)O` [dimethyl dodecylglycine betaine], the “precipitation from copper sulfate solutions / solution suitable for coating” value is given as “did not cause precipitation”. The same measure, in the same setting: the value for `CCCCCCCCCCCC[N+](C)(C)CCCS(=O)(=O)O` [lauryl sulfobetaine] was “did not cause precipitation”. Still for that read-out and setting: for `CCCCCCCCCCCCOS(=O)(=O)[O-].[Na+]` [sodium dodecylsulfate] the value was “acceptable solution for coating”. As to sodium dodecylbenzenesulfonate, the “solubility in solutions of copper sulfate” value (in solutions of copper sulfate) is “very low and insufficient solubility”.
